Data taken from patent publication US10183053B1, “Multi-component formulations” (priority 2017, dated 2019).

Key:
[1] = test system: human stem cell derived neurons; experiment: Cell viability of human stem cell derived neurons treated with multi-component formulations (Hoechst/propidium iodide, ArrayScan VTI); format: cell-based
Protocol: Cryopreserved human stem cell derived neurons obtained from PhoenixSongs Biologicals were thawed and plated at a density of 12000 cells per well in a 384-well PDL/laminin coated plate. The neurons were maintained in a humidified environment at 37° C. with 5% CO2 for six days with periodic media changes before experimental procedures were performed. […] Cells were dosed in triplicate with 10-point dose response curves to determine if there was any protective effect (improved survival of cells) or toxicity with the test compounds versus the untreated cells. A positive control (chlorpromazine) was also used to assess cytotoxicity response in these cells. After a three-day incubation with test compositions, the cells were stained with Hoechst and propidium iodide and read on an ArrayScan VTI to determine cell viability. Results were normalized to vehicle and graphed using GraphPad Prism. […]

primary chicken neurons = experiment: MTT cell viability assay in primary chicken neurons; format: cell-based; conditions: for concentration above which cell viability declined: compared to vehicle control, FIG. 5, FIG. 6; for Cell viability, Mean: no MSM nor FDP, 48 h
Protocol: Fertilized chicken eggs were stored under turning at 37.8° C. and 55% humidity until embryonic day eight. Embryos were transferred to a plastic dish and decapitated. Both hemispheres were removed, collected and cleaned from any loose tissue. Hemispheres were mechanically dissociated and 4.8×10^4 cells per well (96-well plates) were seeded in a volume of 160 μL. The cell culture medium consisted of Dubelcco's Modified Eagle's Medium with […], 5% Nu Serum, 0.01% gentamycin and 2 mM L-glutamine. Cultures were maintained at 37° C., 95% humidity and 5% CO2.
Test compositions and vehicle controls were applied to chicken neurons at day-in-vitro 8 for 48 h. On day-in-vitro 10 the viability of neurons was determined according to MTT cell viability assay using a plate reader (570 nm). That assay allows the measurement of the mitochondrial dehydrogenase activity, which reduces yellow MTT to dark blue formazan crystals. Since this reaction is catalyzed in living cells only, this assay is used for the determination of cell viability. MTT solution was added to each well in a final concentration of 0.5 mg/mL. After two hours the MTT-containing medium is aspired. Cells were lysed in 3% SDS and the formazan crystals were dissolved in isopropanol/HCl. Optical density was measured with a plate reader at 570 nm. Cell survival rage was expressed as optical density (OS). Values were calculated as percent of control values (vehicle control, which is medium).
Using the same protocol as in Example 2, primary chicken neurons were treated with varying concentrations of methylsulfonylmethane and/or fructose 1,6-diphosphate. Cell viability was determined with the MTT assay.
Using the protocol of Example 2, a formulation containing methylsulfonylmethane (0.1 μM), D-fructose 1,6-diphosphate trisodium salt hydrate (1 μM), and rutin (0.001 μM) was tested for cell viability in primary chicken neurons. Vehicle control (medium) and methylsulfonylmethane with fructose 1,6-diphosphate compositions were also tested. The results appear in FIG. 12.

## CN(C)CCCN1c2ccccc2Sc2ccc(Cl)cc21 [Chlorpromazine, chlorpromazine]
[1]; Homo sapiens, Neuron, 72 h, three-day incubation, formulations in medium with MSM 0.1 μM and FDP 1 μM, chlorpromazine without MSM and FDP, read-out: IC50 for Cell Loss
  IC50: 3.8 µM
[1]; at comparable concentrations
  neuron cell toxicity / safety (in words): relatively high neuron cell toxicity

## O=C(COP(=O)(O)O)[C@@H](O)[C@H](O)[C@H](O)COP(=O)(O)O [FDP, fructose 1,6-diphosphate]
Primary chicken neurons
  concentration above which cell viability declined: above 0.1 mM

## CS(C)(=O)=O [MSM, methylsulfonylmethane]
Primary chicken neurons
  concentration above which cell viability declined: above 5 mM

## C[C@@H]1O[C@@H](OC[C@H]2O[C@@H](Oc3c(-c4ccc(O)c(O)c4)oc4cc(O)cc(O)c4c3=O)[C@H](O)[C@@H](O)[C@@H]2O)[C@H](O)[C@H](O)[C@H]1O [Rutin, quercetin-3-O-rutinoside]
Primary chicken neurons; rutin 0.001 (μM), vehicle alone
  Cell viability, Mean: 96.7% of control
Primary chicken neurons; rutin 0.01, vehicle alone
  Cell viability, Mean: 99.7% of control
Primary chicken neurons; rutin 0.1, vehicle alone
  Cell viability, Mean: 98.1% of control
Primary chicken neurons; rutin 1, vehicle alone
  Cell viability, Mean: 97.7% of control
Primary chicken neurons; rutin 10, vehicle alone
  Cell viability, Mean: 100.2% of control
